4 compounds from patent US20250002480A1, “AMINOHETEROARYL KINASE INHIBITORS” (ALLORION THERAPEUTICS INC, priority 2021, published 2025) can be followed below.

A value given as a limit tells only on which side of the number the result lay.

Holding throughout (format): biochemical
Experiment [1] has as its target CDK9/Cyclin T1 (Homo sapiens, UniProt P50750). The experiment in a line: CDK9/Cyclin T1 in vitro kinase inhibition (Biological Example 1 of WO2022/111621). On the procedure:
(§1) Biological activity for representative compounds of the present disclosure were tested according to those described in Biological Example 1 in PCT/CN2021/133429, published as WO2022/111621 on Jun. 2, 2022.

Experiment [2] concerns the target CDK7/Cyclin H/MAT1 (Homo sapiens, UniProt P50613). The experiment can be described thus: CDK7/Cyclin H/MAT1 in vitro kinase inhibition (Biological Example 1 of WO2022/111621). The method, then: as §1
For experiment [3], the target named is CDK6/Cyclin D1 (Homo sapiens, UniProt Q00534). The experiment in a line: CDK6/Cyclin D1 in vitro kinase inhibition (Biological Example 1 of WO2022/111621). The method, then:
as §1

For experiment [4], the target named is CDK4/Cyclin D1 (Homo sapiens, UniProt P11802). The experiment can be described thus: CDK4/Cyclin D1 in vitro kinase inhibition (Biological Example 1 of WO2022/111621). The method, then:
as §1

Sequence of CDK7/Cyclin H/MAT1 (P50613 whole entry): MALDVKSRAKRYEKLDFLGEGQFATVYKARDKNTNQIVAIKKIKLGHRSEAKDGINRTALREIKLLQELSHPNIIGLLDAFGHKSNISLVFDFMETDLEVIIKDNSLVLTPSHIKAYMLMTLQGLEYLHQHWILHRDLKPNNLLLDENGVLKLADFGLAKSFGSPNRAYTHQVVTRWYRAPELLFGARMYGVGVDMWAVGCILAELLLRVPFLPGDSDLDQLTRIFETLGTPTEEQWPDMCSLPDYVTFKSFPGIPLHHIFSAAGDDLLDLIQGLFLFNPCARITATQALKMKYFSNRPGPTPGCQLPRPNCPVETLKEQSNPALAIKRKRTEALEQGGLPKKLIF
Sequence of CDK7/Cyclin H/MAT1 (P51946 whole entry partner): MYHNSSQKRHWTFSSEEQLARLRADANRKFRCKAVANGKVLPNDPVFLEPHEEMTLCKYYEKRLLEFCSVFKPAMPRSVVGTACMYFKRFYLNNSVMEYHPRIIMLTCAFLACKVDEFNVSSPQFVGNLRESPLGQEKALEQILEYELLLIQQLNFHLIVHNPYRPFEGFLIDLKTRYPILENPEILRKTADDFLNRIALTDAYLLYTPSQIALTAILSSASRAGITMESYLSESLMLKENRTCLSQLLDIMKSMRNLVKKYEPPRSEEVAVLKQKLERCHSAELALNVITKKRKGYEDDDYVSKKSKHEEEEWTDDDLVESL
Sequence of CDK7/Cyclin H/MAT1 (P51948 whole entry partner): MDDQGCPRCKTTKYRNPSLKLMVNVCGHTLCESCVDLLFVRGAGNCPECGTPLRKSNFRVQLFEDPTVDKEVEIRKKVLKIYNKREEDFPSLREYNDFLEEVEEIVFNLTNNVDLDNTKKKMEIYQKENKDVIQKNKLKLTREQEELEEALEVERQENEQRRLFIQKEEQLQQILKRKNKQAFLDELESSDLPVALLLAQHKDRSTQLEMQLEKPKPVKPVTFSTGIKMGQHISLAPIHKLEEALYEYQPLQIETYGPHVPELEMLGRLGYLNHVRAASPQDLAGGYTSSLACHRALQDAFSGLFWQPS
Sequence of CDK6/Cyclin D1 (Q00534 whole entry): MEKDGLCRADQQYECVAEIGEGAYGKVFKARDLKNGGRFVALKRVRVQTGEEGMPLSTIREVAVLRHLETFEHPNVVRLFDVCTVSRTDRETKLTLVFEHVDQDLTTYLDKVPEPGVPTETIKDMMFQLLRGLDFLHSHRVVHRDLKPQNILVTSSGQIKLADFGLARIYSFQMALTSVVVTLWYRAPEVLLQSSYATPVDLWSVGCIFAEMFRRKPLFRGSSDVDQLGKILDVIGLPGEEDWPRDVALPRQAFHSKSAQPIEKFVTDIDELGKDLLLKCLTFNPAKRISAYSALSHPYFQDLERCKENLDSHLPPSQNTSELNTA
Sequence of CDK6/Cyclin D1 (P24385 whole entry partner): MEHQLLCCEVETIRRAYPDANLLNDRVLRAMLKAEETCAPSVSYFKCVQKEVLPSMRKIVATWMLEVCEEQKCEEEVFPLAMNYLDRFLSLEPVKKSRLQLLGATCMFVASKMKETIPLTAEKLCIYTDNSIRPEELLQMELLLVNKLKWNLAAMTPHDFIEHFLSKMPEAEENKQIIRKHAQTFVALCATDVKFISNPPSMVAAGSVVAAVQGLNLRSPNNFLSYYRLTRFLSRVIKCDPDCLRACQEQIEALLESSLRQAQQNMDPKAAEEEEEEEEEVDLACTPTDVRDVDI
Sequence of CDK4/Cyclin D1 (P11802 whole entry): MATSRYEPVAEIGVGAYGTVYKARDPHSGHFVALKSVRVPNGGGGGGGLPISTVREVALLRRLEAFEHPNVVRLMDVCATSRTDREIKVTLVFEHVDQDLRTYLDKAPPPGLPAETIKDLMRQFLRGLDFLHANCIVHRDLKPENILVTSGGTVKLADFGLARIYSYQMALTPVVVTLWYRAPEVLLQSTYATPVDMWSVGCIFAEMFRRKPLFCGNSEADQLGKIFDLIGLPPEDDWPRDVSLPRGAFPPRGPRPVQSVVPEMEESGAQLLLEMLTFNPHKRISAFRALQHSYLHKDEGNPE
Sequence of CDK4/Cyclin D1 (P24385 whole entry partner): as the sequence (P24385 whole entry partner) above
Sequence of CDK9/Cyclin T1 (P50750 whole entry): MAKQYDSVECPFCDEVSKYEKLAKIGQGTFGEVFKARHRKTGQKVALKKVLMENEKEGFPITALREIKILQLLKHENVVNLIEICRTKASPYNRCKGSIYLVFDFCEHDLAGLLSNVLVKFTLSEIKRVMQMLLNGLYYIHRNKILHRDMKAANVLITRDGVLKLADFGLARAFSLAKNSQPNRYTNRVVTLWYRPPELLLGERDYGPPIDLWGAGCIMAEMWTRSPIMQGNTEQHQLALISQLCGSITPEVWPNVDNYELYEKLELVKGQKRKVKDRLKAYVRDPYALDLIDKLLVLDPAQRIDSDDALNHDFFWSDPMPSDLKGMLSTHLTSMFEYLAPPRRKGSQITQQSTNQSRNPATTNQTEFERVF
Sequence of CDK9/Cyclin T1 (O60563 whole entry partner): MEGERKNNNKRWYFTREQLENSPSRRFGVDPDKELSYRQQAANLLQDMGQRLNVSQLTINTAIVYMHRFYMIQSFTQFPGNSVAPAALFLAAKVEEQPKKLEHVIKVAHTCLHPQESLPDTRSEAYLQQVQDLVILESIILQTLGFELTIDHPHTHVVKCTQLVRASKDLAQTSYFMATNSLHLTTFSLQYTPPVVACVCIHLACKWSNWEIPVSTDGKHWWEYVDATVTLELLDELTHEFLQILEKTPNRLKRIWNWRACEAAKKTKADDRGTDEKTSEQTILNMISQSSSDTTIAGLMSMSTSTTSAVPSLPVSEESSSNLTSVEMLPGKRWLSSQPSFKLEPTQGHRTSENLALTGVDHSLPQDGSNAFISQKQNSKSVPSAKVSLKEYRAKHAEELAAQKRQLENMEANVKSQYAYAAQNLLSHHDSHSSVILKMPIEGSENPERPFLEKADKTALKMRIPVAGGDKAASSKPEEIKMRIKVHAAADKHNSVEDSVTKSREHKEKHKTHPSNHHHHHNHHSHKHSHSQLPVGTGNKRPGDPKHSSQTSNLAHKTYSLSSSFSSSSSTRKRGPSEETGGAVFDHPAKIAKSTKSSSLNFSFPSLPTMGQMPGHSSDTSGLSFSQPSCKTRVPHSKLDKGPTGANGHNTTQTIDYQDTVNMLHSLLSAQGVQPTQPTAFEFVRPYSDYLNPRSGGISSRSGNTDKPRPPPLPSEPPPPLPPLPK

One may read the IC50 as the midpoint of a concentration-inhibition curve. High values mean lower potency, low ones higher potency. Consider `NS(=O)(=O)c1ccc(Nc2ncc(C(F)(F)F)c(O[C@@H]3CCOC[C@@H]3O)n2)cc1` [Compound E7, 4-((4-(((3S,4R)-3-hydroxytetrahydro-2H-pyran-4-yl)oxy)-5-(trifluoromethyl)pyrimidin-2-yl)amino)benzenesulfonamide], for which the IC50 in experiment [1] and in experiment [2] was no less than 1000 nM throughout.

In experiment [3], `[2H]C([2H])([2H])NS(=O)(=O)c1ccc(Nc2ncc(C(F)(F)F)c(O[C@@H]3CCOC[C@H]3O)n2)cc1` [Compound E3] yielded an IC50 of no less than 1000 nM.

`[2H]C([2H])([2H])NS(=O)(=O)c1ccc(Nc2ncc(C(F)(F)F)c(O[C@H]3CCOC[C@H]3O)n2)cc1` [Compound E2]: the 50% inhibitory concentration (IC50) in experiment [4], in experiment [3] and in experiment [2] was no less than 1000 nM in each case.

As for `[2H]C([2H])([2H])NS(=O)(=O)c1ccc(Nc2ncc(C(F)(F)F)c(O[C@H]3CCOC[C@@H]3O)n2)cc1` [Compound E4], the IC50 in experiment [4], in experiment [3] and in experiment [2] was no less than 1000 nM throughout.
